Assay results as given in PMC12349723, “Computationally accelerated identification of P-glycoprotein inhibitors” (PLOS One, 2025).
Values joined by “and” are separate entries in the source; they are usually repeats but may differ in a detail not shown here. Equal entries are not always repeated. Where two headings read alike, the source gives them in different places.

What was measured:
[1] = test system: A2780 cells; assay: MTT viability assay, parental A2780 cells, with or without PTX; assay type: cell-based, human; settings: for Increase of PTX toxicity against parental A2780 cells: 15 µM compound with or without 500 nM PTX, 48 h, MTT; for Mean % Survival / % Survival (individual sample): A2780 cells; for Mean % Survival / viability at 15 µM: mean of 8 or 12 samples; for % Survival (individual sample): single samples; for viability at 15 µM: Homo sapiens, A2780, A2780 cells, read-out: Mean % Survival
Description: (§1) The chemotherapeutic sensitive DU145 human prostate cancer cells and the multidrug resistant sub-line, DU145-TXR, were generous gifts from Dr. Evan Keller (University of Michigan, Ann Arbor, MI). The MDR, P-gp overexpressing DU145-TXR cells were maintained under positive selection pressure by supplementing complete medium with 10 nM paclitaxel (Acros Organics, NJ). In addition to the aforementioned cell lines, the chemotherapeutic sensitive A2780 ovarian cancer cells (93112519, Sigma) and the multidrug resistant A2780-ADR (93112520, Sigma) were maintained in complete RPMI media consisting of RPMI-1640 with L-glutamine, 10% fetal bovine serum (FBS; Corning), 100 U/mL penicillin and 100 μg/mL streptomycin in a humidified incubator at 37 °C and 5% CO2. The MDR, P-gp overexpressing A2780-ADR cell line was maintained under positive selection pressure by supplementing complete medium with 100 nM doxorubicin (Fisher Scientific, NJ). The non-cancerous HFL1 (human lung fibroblast) cell line cell line was a generous gift from Dr. Robert Harrod (Southern Methodist University, Dallas, TX) and was maintained in complete F12K media consisting of F12K with 10% fetal bovine serum, 100 U/mL penicillin, and 100 µg/mL streptomycin (Gibco). Flasks and 96 well plates that were used with the non-cancerous line HFL1 were pre-treated with 0.1 mg/ml Collagen Type 1 (Gibco) and rinsed with PBS (Fisher).
(§2) Culture of the DU145, DU145-TXR, and HFL1 cell lines was performed as described in [8]. Culture of the A2780 and A2780-ADR cell lines was performed as described in [9]. MTT assays were performed as described in [8] with minor modifications. LC-MS/MS accumulation assays were performed as described in {Nanayakkara, 2018 #173} [9] with some modifications. […] The inhibitor concentration was lowered to 15 µM here, as the goal of the study was to identify compounds that were effective in reversing MDR at low concentrations, and to determine if the expanded virtual-assisted methods improved on our first-draft attempt. Compounds 56–98 were pre-screened using Resazurin cell viability assays: cells were incubated with 15 µM compound with or without 500 nM PTX for 48 hours, after which cell survival was assessed similar to [39]. Data represent the mean of two separate experiments, with n = 3 samples per experiment (n = 6 total) (S4 Table). The top performing compounds from this initial screen were re-tested with MTT viability assays against DU145-TXR cells, as described below.
(§3) MTT assays measure the reduction of yellow, water soluble 3-(4,5-dimethylthiazol-2-yl)-2,5-diphenyltetrazolium bromide (MTT) to blue, insoluble formazan crystals by cellular reductase processes in living cells. Cells were trypsinized from monolayers and seeded in complete medium in 96 well plates. Cancerous cell lines (DU145, DU145-TXR, A2780, A2780-ADR) were seeded at 3,000 cells per well in complete RPMI medium. The non-cancerous HFL1 line was seeded at 4,000 cells per well in complete F12K medium, in collagen-treated plates (Collagen Type 1, Gibco). Cells were incubated with experimental compounds for 48 hours at 37 °C and 5% CO2 in a humidified incubator. At 48 hours, MTT was added (20 µL/well of 5 mg/mL MTT in PBS) to each well. After incubation for 4 hours, the media was removed, and the formazan crystals were dissolved in 100 µL DMSO per well. Plates containing the semi-adherent A2780 or A2780-ADR lines were spun at 1400 rpm for 3 minutes prior to aspiration of media, and the addition of DMSO. Plates were shaken for 10 minutes at 500 rpm on an Orbital shaker (LabDoctor from MidSci, St Louis, MO). The absorbance was measured at 570 nm using a Bio-Tek Cytation 5 (Bio-Tek, Winooski, VT). The measured absorbance value was correlated with the number of metabolically active cells in that well, corrected for absorbance of media. […]

[2] = molecular target: T1, P-gp (Homo sapiens, UniProt P08183); assay: Top Hit classification from combined in vitro criteria; settings: reverse MDR, do not increase PTX toxicity in chemo-sensitive cancer cells, non-toxic to noncancerous cells, not P-gp substrates
T1 construct: The MDR, P-gp overexpressing DU145-TXR cells were maintained under positive selection pressure; endogenous in cells; host or cells: DU145-TXR (paclitaxel-resistant sub-line of DU145 human prostate cancer cells)

[3] = test system: A2780-ADR cells; assay: MTT viability assay, reversal of MDR in P-gp overexpressing A2780-ADR cells; assay type: cell-based, human; settings: for Reversal of MDR in A2780-ADR cells: 15 µM compound with or without 500 nM PTX, 48 h, MTT; for Mean % Survival / % Survival (individual sample) / viability at 15 µM: A2780-ADR cells; for viability at 15 µM: Homo sapiens, A2780 ADR
Description: as §1, §2, §3

[4] = 15 µM compound + 500 nM PTX, mean of 12 samples
[5] = 15 µM compound + 500 nM PTX, single samples (trials 1-3, samples 1-4)
[6] = 15 µM compound alone, mean of 12 samples, read-out: Mean % Survival
[7] = 15 µM compound alone, single samples (trials 1-3, samples 1-4)

T1 sequence (P08183 whole entry): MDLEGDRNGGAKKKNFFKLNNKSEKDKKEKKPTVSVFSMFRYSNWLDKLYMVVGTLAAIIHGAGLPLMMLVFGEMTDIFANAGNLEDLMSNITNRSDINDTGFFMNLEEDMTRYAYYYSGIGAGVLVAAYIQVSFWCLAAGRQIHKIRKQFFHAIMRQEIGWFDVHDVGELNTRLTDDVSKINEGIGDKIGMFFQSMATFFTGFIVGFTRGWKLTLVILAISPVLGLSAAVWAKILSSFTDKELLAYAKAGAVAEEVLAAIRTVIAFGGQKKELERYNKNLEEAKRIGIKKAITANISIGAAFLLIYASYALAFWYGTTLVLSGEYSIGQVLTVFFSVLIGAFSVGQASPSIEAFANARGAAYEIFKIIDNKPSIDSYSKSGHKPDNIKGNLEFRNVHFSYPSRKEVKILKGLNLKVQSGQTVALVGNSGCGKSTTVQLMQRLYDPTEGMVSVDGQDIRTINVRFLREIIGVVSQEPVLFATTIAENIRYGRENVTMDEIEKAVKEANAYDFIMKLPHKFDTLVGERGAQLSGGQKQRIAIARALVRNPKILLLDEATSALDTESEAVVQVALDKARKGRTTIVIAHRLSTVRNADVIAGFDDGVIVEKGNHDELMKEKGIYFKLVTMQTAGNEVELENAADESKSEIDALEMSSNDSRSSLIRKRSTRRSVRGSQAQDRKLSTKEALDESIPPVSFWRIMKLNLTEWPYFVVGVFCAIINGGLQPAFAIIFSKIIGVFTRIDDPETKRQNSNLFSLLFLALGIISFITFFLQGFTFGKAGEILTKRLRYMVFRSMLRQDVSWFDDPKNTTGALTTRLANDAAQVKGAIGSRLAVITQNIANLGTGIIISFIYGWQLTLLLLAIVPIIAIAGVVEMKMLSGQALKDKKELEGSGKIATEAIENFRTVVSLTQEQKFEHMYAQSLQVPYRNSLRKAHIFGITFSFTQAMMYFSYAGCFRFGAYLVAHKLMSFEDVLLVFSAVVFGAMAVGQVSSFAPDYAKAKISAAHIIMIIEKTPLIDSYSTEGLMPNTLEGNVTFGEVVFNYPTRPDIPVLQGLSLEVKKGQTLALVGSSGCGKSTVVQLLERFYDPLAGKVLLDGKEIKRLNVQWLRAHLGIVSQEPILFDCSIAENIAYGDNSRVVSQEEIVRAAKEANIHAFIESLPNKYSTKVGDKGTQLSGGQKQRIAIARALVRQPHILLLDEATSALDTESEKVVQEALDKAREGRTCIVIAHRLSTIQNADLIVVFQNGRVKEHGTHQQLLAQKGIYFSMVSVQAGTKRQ

O=S(=O)(Cc1nc2ccccc2n1CC(O)c1ccc(Cl)cc1)c1ccccc1 (centres unmarked) [Compound 97, OC(Cn1c(CS(=O)(=O)c2ccccc2)nc2ccccc12)c1ccc(Cl)cc1]
Increase of PTX toxicity against parental A2780 cells [1]: did not greatly increase the toxicity of PTX against the parental A2780 cells | Mean % Survival ([1]; 15 µM compound + 500 nM PTX): 13.0% | % Survival (individual sample) ([1]; 15 µM compound + 500 nM PTX): 8% and 19% | viability at 15 µM ([1]; 15 µM compound alone): 89.8% | Top Hit [2]: Yes | Reversal of MDR in A2780-ADR cells [3]: reversed MDR in A2780-ADR cells | Mean % Survival [3, 4]: 44.3% | % Survival (individual sample) [3, 5]: 47% and 29% | viability at 15 µM [3, 6]: 92.5%

COc1cccc(N2CCN(c3ccc4nnc(CCC(=O)Nc5ccc(F)c(F)c5)n4n3)CC2)c1 [Compound 101, COc1cccc(c1)N1CCN(CC1)c1ccc2nnc(CCC(=O)Nc3ccc(F)c(F)c3)n2n1]
Increase of PTX toxicity against parental A2780 cells [1]: did not greatly increase the toxicity of PTX against the parental A2780 cells | Mean % Survival ([1]; 15 µM compound + 500 nM PTX): 14.3% | % Survival (individual sample) ([1]; 15 µM compound alone): 64% | viability at 15 µM ([1]; 15 µM compound alone): 91.9% | Top Hit [2]: Yes | Reversal of MDR in A2780-ADR cells [3]: reversed MDR in A2780-ADR cells | Mean % Survival [3, 4]: 41.5% | % Survival (individual sample) [3, 5]: 46% | % Survival (individual sample) [3, 7]: 93% | viability at 15 µM [3, 6]: 88%

Cc1ccc(-c2noc(-c3cn(Cc4ccc(NS(=O)(=O)c5ccccc5F)cc4)cn3)n2)cc1 [Compound 103, Cc1ccc(cc1)-c1noc(n1)-c1cn(Cc2ccc(NS(=O)(=O)c3ccccc3F)cc2)cn1]
Increase of PTX toxicity against parental A2780 cells [1]: did not greatly increase the toxicity of PTX against the parental A2780 cells | Mean % Survival ([1]; 15 µM compound + 500 nM PTX): 13.6% | % Survival (individual sample) ([1]; 15 µM compound + 500 nM PTX): 10% and 18% and 19% | % Survival (individual sample) ([1]; 15 µM compound alone): 63% | viability at 15 µM ([1]; 15 µM compound alone): 52.9% | Top Hit [2]: No | Reversal of MDR in A2780-ADR cells [3]: reversed MDR in A2780-ADR cells | Mean % Survival [3, 4]: 44.4% | % Survival (individual sample) [3, 7]: 69% | viability at 15 µM [3, 6]: 70.4% | viability at 15 µM ([3]; 15 µM compound alone, single samples (trials 1-3, samples 1-4), read-out: % Survival (individual sample)): 67%

Cc1onc(-c2ccccc2)c1-c1nnc(Cn2cnc3ccccc3c2=O)o1 [Compound 111, Cc1onc(c1-c1nnc(Cn2cnc3ccccc3c2=O)o1)-c1ccccc1]
Increase of PTX toxicity against parental A2780 cells [1]: did not greatly increase the toxicity of PTX against the parental A2780 cells | Mean % Survival ([1]; 15 µM compound + 500 nM PTX): 14.4% | % Survival (individual sample) ([1]; 15 µM compound + 500 nM PTX): 13% | % Survival (individual sample) ([1]; 15 µM compound alone): 102% | viability at 15 µM ([1]; 15 µM compound alone): 94% | Top Hit [2]: Yes | Reversal of MDR in A2780-ADR cells [3]: reversed MDR in A2780-ADR cells | Mean % Survival [3, 4]: 47.6% | % Survival (individual sample) [3, 5]: 52% and 38% | % Survival (individual sample) [3, 7]: 95% and 98% | viability at 15 µM [3, 6]: 97.3%

O=C(NCc1cccc(F)c1)c1nnn2c1Sc1c(C(=O)NCc3cccc(F)c3)nnn1CC2 [Compound 122, Fc1cccc(CNC(=O)c2nnn3CCn4nnc(C(=O)NCc5cccc(F)c5)c4Sc23)c1]
Increase of PTX toxicity against parental A2780 cells [1]: did not greatly increase the toxicity of PTX against the parental A2780 cells | Mean % Survival ([1]; 15 µM compound + 500 nM PTX): 13.6% | % Survival (individual sample) ([1]; 15 µM compound + 500 nM PTX): 12% and 14% | viability at 15 µM ([1]; 15 µM compound alone): 76.5% | Top Hit [2]: No | Reversal of MDR in A2780-ADR cells [3]: reversed MDR in A2780-ADR cells | Mean % Survival [3, 4]: 45.8% | % Survival (individual sample) [3, 5]: 50% and 51% and 45% | % Survival (individual sample) [3, 7]: 104% and 83% | viability at 15 µM [3, 6]: 89.7%

O=C(c1nc(-c2ccccn2)no1)N1CCN(c2nsc3ccccc23)CC1 [Compound 124, O=C(N1CCN(CC1)c1nsc2ccccc12)c1nc(no1)-c1ccccn1]
Increase of PTX toxicity against parental A2780 cells [1]: did not greatly increase the toxicity of PTX against the parental A2780 cells | Mean % Survival ([1]; 15 µM compound + 500 nM PTX): 14.5% | % Survival (individual sample) ([1]; 15 µM compound + 500 nM PTX): 10% | % Survival (individual sample) ([1]; 15 µM compound alone): 86% | viability at 15 µM ([1]; 15 µM compound alone): 89.5% | Top Hit [2]: No | Reversal of MDR in A2780-ADR cells [3]: reversed MDR in A2780-ADR cells | Mean % Survival [3, 4]: 52.5% | % Survival (individual sample) [3, 5]: 58% | % Survival (individual sample) [3, 7]: 94% and 91% | viability at 15 µM [3, 6]: 92.5%
